Results published in ChEMBL document CHEMBL5512632, “Unlocking the potential of 1,4-naphthoquinones: A comprehensive review of their anticancer properties” (Eur J Med Chem, 2024).
≈ marks a conversion by molar mass, not a printed value.

How the values were obtained:
LOX IMVI = experiment: Antiproliferative activity against human LOX IMVI cells assessed as inhibition of cell growth incubated for 24 to 48 hrs by SRB assay; assay type: functional, cell-based
MCF7 [1] = experiment: Antiproliferative activity against human MCF7 cells assessed as inhibition of cell growth incubated for 72 hrs by MTT assay; assay type: functional, cell-based; settings: MCF7, 72 h
Jurkat = experiment: Antiproliferative activity against human Jurkat cells assessed as inhibition of cell growth incubated for 72 hrs by MTT assay; assay type: functional, cell-based
[2] = Antiproliferative activity against human KB-ChR-8-5-11 cells assessed as inhibition of cell growth incubated for 72 hrs by MTT assay; assay type: functional, cell-based; settings: KB-ChR-8-5-11, 72 h
THP-1 = experiment: Antiproliferative activity against human THP-1 cells assessed as inhibition of cell growth incubated for 72 hrs by MTT assay; assay type: functional, cell-based; settings: THP-1, 72 h
HCT-116 [3] = experiment: Antiproliferative activity against human HCT-116 cells assessed as inhibition of cell growth incubated for 72 hrs by MTT assay; assay type: functional, cell-based; settings: HCT-116, 72 h
J774.2 = experiment: Antiproliferative activity against mouse J774.2 cells assessed as inhibition of cell growth incubated for 72 hrs by MTT assay; assay type: functional, cell-based; settings: J774.2, 72 h
HepG2 [4] = experiment: Antiproliferative activity against human HepG2 cells assessed as inhibition of cell growth incubated for 24 hrs by MTT assay; assay type: functional, cell-based; settings: HepG2, 24 h
HeLa [5] = experiment: Antiproliferative activity against human HeLa cells assessed as inhibition of cell growth incubated for 24 hrs by MTT assay; assay type: functional, cell-based
MCF7 [6] = experiment: Antiproliferative activity against human MCF7 cells assessed as inhibition of cell growth incubated for 24 hrs by MTT assay; assay type: functional, cell-based; settings: MCF7, 24 h
[7] = Antiproliferative activity against human NCI-H358M cells assessed as inhibition of cell growth incubated for 72 hrs by MTT assay; assay type: functional, cell-based
PC-3M = experiment: Antiproliferative activity against human PC-3M cells assessed as inhibition of cell growth incubated for 72 hrs by MTT assay; assay type: functional, cell-based
MDA-MB-435 = experiment: Antiproliferative activity against human MDA-MB-435 cells assessed as inhibition of cell growth incubated for 72 hrs by MTT assay; assay type: functional, cell-based; settings: MDA-MB-435, 72 h
HL-60 [8] = experiment: Antiproliferative activity against human HL-60 cells assessed as inhibition of cell growth incubated for 72 hrs by MTT assay; assay type: functional, cell-based; settings: HL-60, 72 h
OVCAR-8 = experiment: Antiproliferative activity against human OVCAR-8 cells assessed as inhibition of cell growth incubated for 72 hrs by MTT assay; assay type: functional, cell-based; settings: OVCAR-8, 72 h
HCT-8 = experiment: Antiproliferative activity against human HCT-8 cells assessed as inhibition of cell growth incubated for 72 hrs by MTT assay; assay type: functional, cell-based; settings: HCT-8, 72 h
SF-295 = experiment: Antiproliferative activity against human SF-295 cells assessed as inhibition of cell growth incubated for 72 hrs by MTT assay; assay type: functional, cell-based; settings: SF-295, 72 h
MOLT-4 = experiment: Antiproliferative activity against human MOLT-4 cells assessed as inhibition of cell growth incubated for 72 hrs by MTT assay; assay type: functional, cell-based; settings: MOLT-4, 72 h
HT-29 = experiment: Antiproliferative activity against human HT-29 cells assessed as inhibition of cell growth incubated for 72 hrs by MTT assay; assay type: functional, cell-based; settings: HT-29, 72 h
A549 = experiment: Antiproliferative activity against human A549 cells assessed as inhibition of cell growth incubated for 48 hrs by MTT assay; assay type: functional, cell-based; settings: A549, 48 h
[9] = Antiproliferative activity against human NCI-H322T cells assessed as inhibition of cell growth incubated for 48 hrs by MTT assay; assay type: functional, cell-based
HeLa [10] = experiment: Antiproliferative activity against human HeLa cells assessed as inhibition of cell growth incubated for 48 hrs by MTT reagent based colorimetric assay; assay type: functional
HepG2 [11] = experiment: Antiproliferative activity against human HepG2 cells assessed as inhibition of cell growth incubated for 48 hrs by MTT reagent based colorimetric assay; assay type: functional; settings: HepG2, 48 h
HL-60 [12] = experiment: Antiproliferative activity against human HL-60 cells assessed as inhibition of cell growth incubated for 72 hrs by MTT reagent based spectral analysis; assay type: functional; settings: HL-60, 72 h
KB = experiment: Antiproliferative activity against human KB cells assessed as inhibition of cell growth incubated for 72 hrs by MTT assay; assay type: functional, cell-based
HepG2 [13] = experiment: Antiproliferative activity against human HepG2 cells assessed as inhibition of cell growth incubated for 72 hrs by MTT assay; assay type: functional, cell-based; settings: HepG2, 72 h
SiHa = experiment: Antiproliferative activity against human SiHa cells; assay type: functional, cell-based
NCI-H460 = experiment: Antiproliferative activity against human NCI-H460 cells assessed as inhibition of cell growth incubated for 72 hrs by MTT assay; assay type: functional, cell-based; settings: NCI-H460, 72 h
DU-145 = experiment: Antiproliferative activity against human DU-145 cells assessed as inhibition of cell growth incubated for 72 hrs by MTT assay; assay type: functional, cell-based; settings: DU-145, 72 h
HCT-116 [14] = experiment: Cytotoxicity against human HCT-116 cells incubated for 48 hrs by MTT assay; assay type: functional, cell-based; settings: HCT-116, 48 h
Bel-7402 = experiment: Cytotoxicity against human Bel-7402 cells incubated for 48 hrs by MTT assay; assay type: functional, cell-based; settings: Bel-7402, 48 h
HCT-15 = experiment: Cytotoxicity against human HCT-15 cells incubated for 48 hrs by MTT assay; assay type: functional, cell-based; settings: HCT-15, 48 h
MDA-MB-231 [15] = experiment: Cytotoxicity against human MDA-MB-231 cells incubated for 48 hrs by MTT assay; assay type: functional, cell-based; settings: MDA-MB-231, 48 h
MDA-MB-231 [16] = experiment: Antiproliferative activity against human MDA-MB-231 cells assessed as inhibition of cell growth incubated for 72 hrs by trypan blue exclusion assay; assay type: functional, cell-based; settings: MDA-MB-231, 72 h
DBTRG-05MG = experiment: Antiproliferative activity against human DBTRG-05MG cells assessed as inhibition of cell growth incubated for 72 hrs by cell counting kit method; assay type: functional, cell-based; settings: dbtrg-05mg

COc1cc(C2C3=C(Sc4[nH]c(=O)sc42)C(=O)c2ccccc2C3=O)ccc1O (stereo not given)
IC50 (LOX IMVI): 0.16 µM

O=C1C2=C(C(=O)c3ccccc31)C(CCc1ccccc1)c1sc(=O)[nH]c1S2 (stereo not given)
IC50 (MCF7 [1]): 8.94 µM | IC50 (Jurkat): 0.76 µM | IC50 [2]: 12.8 µM | IC50 (THP-1): 7.94 µM | IC50 (HCT-116 [3]): 6.37 µM | IC50 (J774.2): 9.57 µM

O=C1C=C(SCCC(=O)N2CCN(c3ccccc3F)CC2)C(=O)c2ccccc21
IC50 (HepG2 [4]): 18.7 µM | IC50 (HeLa [5]): 13 µM | IC50 (MCF7 [6]): 16.1 µM

C[C@H](NC1=CC(=O)c2ccccc2C1=O)C(=O)O
IC50 [7]: 3.36 µM | IC50 (PC-3M): 6.55 µM | IC50 (MDA-MB-435): 1.99 µM | IC50 (HCT-116 [3]): 4.52 µM | IC50 (HL-60 [8]): 4.27 µM | IC50 (OVCAR-8): 9.61 µM | IC50 (HCT-8): 3.38 µM | IC50 (SF-295): 2.56 µM

Cc1ccc(Cn2cc(CNC3=CC(=O)c4ccccc4C3=O)nn2)cc1
IC50 (MOLT-4): 8.4 µM | IC50 (MCF7 [1]): 10.4 µM | IC50 (HT-29): 6.8 µM

N#Cc1ccccc1-n1cc(COc2cccc3c2C(=O)C=CC3=O)nn1
IC50 (A549): 4.67 µM | IC50 [9]: 7.94 µM

O=C1C=C(Nc2cccc(F)c2)C(=O)c2ccccc21
IC50 (A549): 6.15 µM

COc1cc(C2C3=C(Nc4cc5c(cc42)OCO5)C(=O)c2ccccc2C3=O)cc(OC)c1OC (stereo not given)
IC50 (HeLa [10]): 26.8 µM | IC50 (HepG2 [11]): 14.6 µM

CSc1ccc(-c2c(-c3ccc(SC)cc3)n3c4c(c(-c5ccc(SC)cc5)c3c3ccc(SC)cc23)C(=O)c2ccccc2C4=O)cc1
IC50 (HL-60 [12]): 2.92 µM

O=C1OCC2=C1C(c1ccc(Oc3ccc(F)cc3)cc1)C1=C(N2)C(=O)c2ccccc2C1=O (stereo not given)
IC50 (KB): 0.6 µM | IC50 (HepG2 [13]): 1.05 µM | IC50 (MCF7 [1]): 2.12 µM

O=C(Nc1ccc(S(=O)(=O)c2ccc3[nH]c4c(c3c2)C(=O)c2ccccc2C4=O)cc1)c1cc([N+](=O)[O-])cc([N+](=O)[O-])c1
IC50 (SiHa): 20 µg/mL (≈ 33.5 µM)

COc1ccc(N(Cc2cn(S(=O)(=O)c3ccc(C)cc3)nn2)C2=CC(=O)c3ccccc3C2=O)cc1
IC50 (MDA-MB-435): 0.56 µM | IC50 (MCF7 [1]): 0.58 µM | IC50 (Jurkat): 0.31 µM | IC50 (HCT-116 [3]): 0.46 µM | IC50 (NCI-H460): 0.38 µM | IC50 (OVCAR-8): 0.85 µM | IC50 (DU-145): 0.38 µM | IC50 (SF-295): 0.42 µM

C=CC(C)(C)C(OCCCCCCO)c1cc(OC)c2c(c1OC)/C(=N\O)C=C/C2=N\O (stereo not given)
IC50 (HCT-116 [14]): 23.5 µM | IC50 (Bel-7402): 6.53 µM | IC50 (HCT-15): 30.2 µM | IC50 (MDA-MB-231 [15]): 8.46 µM

COC1=CC(=O)c2ccccc2C1=O [2-Methoxy-1,4-naphthoquinone]
IC50 (MDA-MB-231 [16]): 7.5 µM

SODIUM ORTHOVANAD
IC50 (DBTRG-05MG): 25 µM
